Test results from ChEMBL document CHEMBL4507268 (2021).

Assays:
Settings in all cases: Compound concentration 1000.0 nM
[1] = target: T1, Serine/threonine-protein kinase D3 (Homo sapiens) (UniProt O94806)
T1 sequence (whole entry): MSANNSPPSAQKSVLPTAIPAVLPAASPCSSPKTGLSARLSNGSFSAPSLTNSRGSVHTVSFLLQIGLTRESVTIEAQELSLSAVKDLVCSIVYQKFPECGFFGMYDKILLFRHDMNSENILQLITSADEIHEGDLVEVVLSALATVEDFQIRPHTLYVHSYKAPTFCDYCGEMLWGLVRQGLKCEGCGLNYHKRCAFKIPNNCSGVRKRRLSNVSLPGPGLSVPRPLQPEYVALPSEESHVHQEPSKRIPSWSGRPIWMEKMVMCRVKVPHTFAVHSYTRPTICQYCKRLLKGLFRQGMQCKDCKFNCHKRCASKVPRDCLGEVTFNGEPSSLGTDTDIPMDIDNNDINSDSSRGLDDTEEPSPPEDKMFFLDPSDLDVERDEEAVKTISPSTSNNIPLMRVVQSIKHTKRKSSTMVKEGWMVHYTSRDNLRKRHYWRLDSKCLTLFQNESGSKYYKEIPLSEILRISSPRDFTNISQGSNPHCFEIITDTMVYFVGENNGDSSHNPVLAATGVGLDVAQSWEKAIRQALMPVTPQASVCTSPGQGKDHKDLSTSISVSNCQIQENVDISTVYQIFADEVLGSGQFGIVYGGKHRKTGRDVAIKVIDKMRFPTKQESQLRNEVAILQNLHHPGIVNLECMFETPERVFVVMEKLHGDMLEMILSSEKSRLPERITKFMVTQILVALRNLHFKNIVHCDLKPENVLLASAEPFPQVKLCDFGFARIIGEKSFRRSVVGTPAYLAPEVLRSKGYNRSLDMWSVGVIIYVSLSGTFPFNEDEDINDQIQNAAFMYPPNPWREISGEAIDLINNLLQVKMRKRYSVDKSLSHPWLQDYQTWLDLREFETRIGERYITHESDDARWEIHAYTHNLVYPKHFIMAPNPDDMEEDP

[2] = target: Ribosomal protein S6 kinase alpha-3 (Homo sapiens) (UniProt P51812)
Chain of Ribosomal protein S6 kinase alpha-3 (Homo sapiens) (P51812 whole entry): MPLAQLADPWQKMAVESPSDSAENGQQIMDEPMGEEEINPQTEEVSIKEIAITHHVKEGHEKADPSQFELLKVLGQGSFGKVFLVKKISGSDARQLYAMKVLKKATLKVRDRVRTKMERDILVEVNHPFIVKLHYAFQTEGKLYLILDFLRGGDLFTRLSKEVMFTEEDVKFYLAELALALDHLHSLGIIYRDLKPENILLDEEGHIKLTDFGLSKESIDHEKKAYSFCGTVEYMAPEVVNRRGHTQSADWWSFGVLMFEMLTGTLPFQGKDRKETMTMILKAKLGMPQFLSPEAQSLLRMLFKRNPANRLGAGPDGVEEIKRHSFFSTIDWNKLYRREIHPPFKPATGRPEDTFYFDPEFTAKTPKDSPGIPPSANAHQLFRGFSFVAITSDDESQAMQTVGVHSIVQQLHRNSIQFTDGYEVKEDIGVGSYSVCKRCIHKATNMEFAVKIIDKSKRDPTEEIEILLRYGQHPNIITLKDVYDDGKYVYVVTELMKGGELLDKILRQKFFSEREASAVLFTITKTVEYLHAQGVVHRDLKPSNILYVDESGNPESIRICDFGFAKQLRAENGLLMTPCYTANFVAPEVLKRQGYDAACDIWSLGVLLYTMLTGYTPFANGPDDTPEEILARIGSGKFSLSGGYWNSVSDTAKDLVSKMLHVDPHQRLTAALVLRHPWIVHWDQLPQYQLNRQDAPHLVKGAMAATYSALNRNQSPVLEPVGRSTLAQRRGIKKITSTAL

[3] = target: Ribosomal protein S6 kinase alpha-4 (Homo sapiens) (UniProt O75676)
Chain of Ribosomal protein S6 kinase alpha-4 (Homo sapiens) (O75676 whole entry, looked up): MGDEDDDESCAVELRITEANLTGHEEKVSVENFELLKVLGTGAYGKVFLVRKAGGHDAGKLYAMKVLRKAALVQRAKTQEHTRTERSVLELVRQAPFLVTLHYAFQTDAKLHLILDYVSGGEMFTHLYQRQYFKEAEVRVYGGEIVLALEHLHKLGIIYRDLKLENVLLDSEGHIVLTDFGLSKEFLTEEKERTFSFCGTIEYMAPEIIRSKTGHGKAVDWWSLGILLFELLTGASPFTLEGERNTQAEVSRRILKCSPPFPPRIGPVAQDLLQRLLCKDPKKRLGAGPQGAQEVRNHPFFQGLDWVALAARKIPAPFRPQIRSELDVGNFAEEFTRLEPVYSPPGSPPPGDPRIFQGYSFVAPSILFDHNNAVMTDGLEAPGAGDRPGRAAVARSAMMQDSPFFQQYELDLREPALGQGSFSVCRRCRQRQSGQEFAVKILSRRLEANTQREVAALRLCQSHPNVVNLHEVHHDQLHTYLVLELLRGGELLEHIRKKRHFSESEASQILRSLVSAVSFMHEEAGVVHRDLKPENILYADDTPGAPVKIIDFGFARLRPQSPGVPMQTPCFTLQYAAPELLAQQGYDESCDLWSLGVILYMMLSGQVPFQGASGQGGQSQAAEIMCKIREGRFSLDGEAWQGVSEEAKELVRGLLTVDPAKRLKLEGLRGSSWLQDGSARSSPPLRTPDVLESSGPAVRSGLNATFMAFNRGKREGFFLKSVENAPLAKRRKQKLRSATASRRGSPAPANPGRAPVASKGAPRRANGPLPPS

[4] = target: Activin receptor type-2A (Homo sapiens) (UniProt P27037)
Chain of Activin receptor type-2A (Homo sapiens) (P27037 whole entry): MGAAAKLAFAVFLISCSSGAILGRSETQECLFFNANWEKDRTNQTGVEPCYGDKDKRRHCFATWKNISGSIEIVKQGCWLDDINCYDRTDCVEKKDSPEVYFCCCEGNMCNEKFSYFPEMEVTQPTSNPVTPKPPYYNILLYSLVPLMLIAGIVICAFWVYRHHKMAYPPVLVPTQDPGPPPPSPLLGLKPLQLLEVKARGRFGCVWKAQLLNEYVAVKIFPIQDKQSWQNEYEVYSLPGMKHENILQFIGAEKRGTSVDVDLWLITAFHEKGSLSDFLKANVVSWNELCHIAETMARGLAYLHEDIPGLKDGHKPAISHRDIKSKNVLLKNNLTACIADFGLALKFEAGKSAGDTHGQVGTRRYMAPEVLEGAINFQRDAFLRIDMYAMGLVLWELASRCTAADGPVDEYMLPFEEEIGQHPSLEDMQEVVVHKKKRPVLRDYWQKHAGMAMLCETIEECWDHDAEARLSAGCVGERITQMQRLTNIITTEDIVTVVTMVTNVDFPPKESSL

[5] = target: T2, Tyrosine-protein kinase Mer (Homo sapiens) (UniProt Q12866)
T2 sequence (whole entry): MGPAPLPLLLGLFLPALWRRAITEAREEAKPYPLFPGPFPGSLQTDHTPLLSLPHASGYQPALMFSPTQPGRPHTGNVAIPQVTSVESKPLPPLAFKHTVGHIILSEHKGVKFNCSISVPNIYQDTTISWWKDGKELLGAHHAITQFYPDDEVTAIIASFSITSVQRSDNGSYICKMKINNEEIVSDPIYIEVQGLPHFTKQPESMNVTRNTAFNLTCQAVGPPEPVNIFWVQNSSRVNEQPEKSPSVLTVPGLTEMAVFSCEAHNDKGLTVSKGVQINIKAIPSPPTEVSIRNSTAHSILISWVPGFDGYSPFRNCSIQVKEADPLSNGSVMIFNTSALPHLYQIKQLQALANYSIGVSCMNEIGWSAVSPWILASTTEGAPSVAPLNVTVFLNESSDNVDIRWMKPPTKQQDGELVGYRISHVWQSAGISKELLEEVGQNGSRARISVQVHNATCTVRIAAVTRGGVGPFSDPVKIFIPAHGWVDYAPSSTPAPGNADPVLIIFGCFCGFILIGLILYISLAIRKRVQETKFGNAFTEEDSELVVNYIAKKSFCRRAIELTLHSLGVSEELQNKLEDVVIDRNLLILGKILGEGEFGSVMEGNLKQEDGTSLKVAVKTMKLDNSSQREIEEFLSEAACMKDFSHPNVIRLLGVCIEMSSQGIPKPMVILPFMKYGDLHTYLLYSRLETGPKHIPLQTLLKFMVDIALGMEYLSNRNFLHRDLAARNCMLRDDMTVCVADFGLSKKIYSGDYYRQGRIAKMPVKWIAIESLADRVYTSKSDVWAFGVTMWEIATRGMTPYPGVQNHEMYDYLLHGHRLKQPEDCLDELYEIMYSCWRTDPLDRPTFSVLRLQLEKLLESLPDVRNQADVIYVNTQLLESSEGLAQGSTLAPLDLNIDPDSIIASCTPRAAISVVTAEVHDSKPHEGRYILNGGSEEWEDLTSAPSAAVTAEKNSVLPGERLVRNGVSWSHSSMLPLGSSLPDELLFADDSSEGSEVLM

[6] = target: Peripheral plasma membrane protein CASK (Homo sapiens) (UniProt O14936)
[7] = target: Serine/threonine-protein kinase PRP4 homolog (Homo sapiens) (UniProt Q13523)
Chain of Serine/threonine-protein kinase PRP4 homolog (Homo sapiens) (Q13523 whole entry): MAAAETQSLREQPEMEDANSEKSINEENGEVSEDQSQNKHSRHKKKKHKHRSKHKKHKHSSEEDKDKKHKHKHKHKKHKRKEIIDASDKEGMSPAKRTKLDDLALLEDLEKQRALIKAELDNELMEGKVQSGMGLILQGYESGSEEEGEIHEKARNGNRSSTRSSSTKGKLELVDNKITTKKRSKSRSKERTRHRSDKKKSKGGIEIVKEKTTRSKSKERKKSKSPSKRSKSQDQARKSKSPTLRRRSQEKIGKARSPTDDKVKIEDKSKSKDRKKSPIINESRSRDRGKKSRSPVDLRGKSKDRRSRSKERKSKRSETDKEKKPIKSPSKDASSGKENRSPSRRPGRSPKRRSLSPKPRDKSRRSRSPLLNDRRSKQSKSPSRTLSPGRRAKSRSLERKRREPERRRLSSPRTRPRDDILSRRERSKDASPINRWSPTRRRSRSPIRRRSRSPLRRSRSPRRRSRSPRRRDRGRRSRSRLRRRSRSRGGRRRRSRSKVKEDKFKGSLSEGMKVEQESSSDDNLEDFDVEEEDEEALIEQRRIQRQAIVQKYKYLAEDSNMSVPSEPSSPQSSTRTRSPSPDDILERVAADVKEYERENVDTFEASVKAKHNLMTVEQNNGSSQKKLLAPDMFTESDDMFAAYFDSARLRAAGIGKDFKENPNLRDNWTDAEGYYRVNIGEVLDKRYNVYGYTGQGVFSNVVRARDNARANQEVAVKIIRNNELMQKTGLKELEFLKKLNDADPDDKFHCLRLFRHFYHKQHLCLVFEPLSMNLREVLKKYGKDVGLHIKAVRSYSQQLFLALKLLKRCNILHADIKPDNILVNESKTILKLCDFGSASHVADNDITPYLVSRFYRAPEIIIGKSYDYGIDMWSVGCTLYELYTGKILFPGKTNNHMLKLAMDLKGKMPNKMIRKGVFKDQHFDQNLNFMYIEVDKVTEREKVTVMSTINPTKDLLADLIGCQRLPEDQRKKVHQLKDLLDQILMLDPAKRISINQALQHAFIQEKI

[8] = target: cAMP-dependent protein kinase catalytic subunit beta (Homo sapiens) (UniProt P22694)
[9] = target: T3, Receptor-interacting serine/threonine-protein kinase 1 (Homo sapiens) (UniProt Q13546)
T3 sequence (whole entry): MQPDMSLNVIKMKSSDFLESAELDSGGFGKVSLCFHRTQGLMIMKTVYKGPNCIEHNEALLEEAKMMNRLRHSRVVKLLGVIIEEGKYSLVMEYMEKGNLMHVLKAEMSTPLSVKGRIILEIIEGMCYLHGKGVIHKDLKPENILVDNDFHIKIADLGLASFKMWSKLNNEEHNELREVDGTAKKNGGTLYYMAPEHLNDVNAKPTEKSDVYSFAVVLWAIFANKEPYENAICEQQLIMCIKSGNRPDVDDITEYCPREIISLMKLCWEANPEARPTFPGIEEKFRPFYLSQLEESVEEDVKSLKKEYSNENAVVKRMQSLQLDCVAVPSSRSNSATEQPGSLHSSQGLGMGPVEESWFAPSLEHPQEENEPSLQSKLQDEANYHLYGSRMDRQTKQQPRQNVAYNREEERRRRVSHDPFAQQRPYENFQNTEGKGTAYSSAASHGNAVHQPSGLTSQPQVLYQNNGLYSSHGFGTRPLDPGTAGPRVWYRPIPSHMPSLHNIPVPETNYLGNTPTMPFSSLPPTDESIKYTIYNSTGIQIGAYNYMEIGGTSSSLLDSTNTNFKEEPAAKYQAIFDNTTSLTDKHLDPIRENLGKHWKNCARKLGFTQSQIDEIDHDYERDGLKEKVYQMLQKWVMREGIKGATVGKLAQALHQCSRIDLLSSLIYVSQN

[10] = target: Misshapen-like kinase 1 (Homo sapiens) (UniProt Q8N4C8)
Chain of Misshapen-like kinase 1 (Homo sapiens) (Q8N4C8 whole entry, looked up): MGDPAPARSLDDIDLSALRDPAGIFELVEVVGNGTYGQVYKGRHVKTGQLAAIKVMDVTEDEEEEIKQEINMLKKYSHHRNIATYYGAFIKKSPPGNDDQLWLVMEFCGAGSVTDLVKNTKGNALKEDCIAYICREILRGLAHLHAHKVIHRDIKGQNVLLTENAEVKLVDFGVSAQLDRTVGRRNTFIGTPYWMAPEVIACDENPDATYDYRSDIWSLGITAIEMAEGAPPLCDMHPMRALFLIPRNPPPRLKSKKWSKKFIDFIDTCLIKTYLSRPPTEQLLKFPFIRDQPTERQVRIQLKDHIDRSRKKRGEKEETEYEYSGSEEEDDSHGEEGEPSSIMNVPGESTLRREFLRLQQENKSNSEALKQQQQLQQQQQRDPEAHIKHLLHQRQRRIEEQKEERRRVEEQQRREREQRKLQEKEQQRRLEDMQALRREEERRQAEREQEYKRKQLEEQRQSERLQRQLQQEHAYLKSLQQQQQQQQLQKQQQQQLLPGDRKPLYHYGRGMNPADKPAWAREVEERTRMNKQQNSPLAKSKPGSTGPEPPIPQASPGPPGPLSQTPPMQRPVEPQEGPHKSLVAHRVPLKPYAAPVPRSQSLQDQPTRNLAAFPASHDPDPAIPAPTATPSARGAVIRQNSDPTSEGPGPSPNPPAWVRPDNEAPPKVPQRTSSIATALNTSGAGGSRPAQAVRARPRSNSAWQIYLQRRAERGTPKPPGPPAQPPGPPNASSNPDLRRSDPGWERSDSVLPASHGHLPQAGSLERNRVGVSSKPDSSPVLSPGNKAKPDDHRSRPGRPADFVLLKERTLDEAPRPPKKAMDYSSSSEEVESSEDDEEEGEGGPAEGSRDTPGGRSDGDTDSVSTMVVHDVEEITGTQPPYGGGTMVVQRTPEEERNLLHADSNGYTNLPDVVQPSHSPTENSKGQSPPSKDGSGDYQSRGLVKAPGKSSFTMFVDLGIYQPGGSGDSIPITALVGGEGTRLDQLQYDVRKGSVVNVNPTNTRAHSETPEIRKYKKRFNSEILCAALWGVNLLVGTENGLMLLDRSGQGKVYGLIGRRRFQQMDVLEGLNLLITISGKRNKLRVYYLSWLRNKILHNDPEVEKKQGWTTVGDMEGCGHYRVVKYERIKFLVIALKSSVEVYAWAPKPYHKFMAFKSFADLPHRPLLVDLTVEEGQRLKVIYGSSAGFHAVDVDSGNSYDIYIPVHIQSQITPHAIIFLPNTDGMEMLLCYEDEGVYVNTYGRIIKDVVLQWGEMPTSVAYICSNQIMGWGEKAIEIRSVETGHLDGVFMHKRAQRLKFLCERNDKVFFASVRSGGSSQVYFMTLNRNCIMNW

[11] = target: Ephrin type-A receptor 4 (Homo sapiens) (UniProt P54764)

Measured: residual activity

Cc1nc(C2CCN(C(=O)c3ccc(OC(F)(F)F)cc3N)CC2)c2ncc(N3CCN(C)CC3)cc2n1 [BAY-693]
inactive: [1] 100% | [2] 100% | [3] 93% | [4] 100% | [5] 87% | [6] 87% | [7] 96% | [8] 100% | [9] 98% | [10] 93% | [11] 100%

CN1CCN(c2cnc3c(C4CCN(C(=O)c5ccc(OC(F)(F)F)cc5N)CC4)ncnc3c2)CC1 [BAY-885]
inactive: [1] 100% | [2] 85% | [3] 100% | [4] 100% | [5] 75% | [6] 89% | [7] 100% | [8] 91% | [9] 100% | [10] 85% | [11] 100%
